Results published in publication PMC7439263 (ACS Omega, 2020).

Experiments:
α-glucosidase = conditions: cited from earlier work
α-amylase = conditions: cited from earlier work
[1] = in vivo ref 49; cited from earlier work
[2] = tested on: α-Glucosidase (from Saccharomyces cerevisiae); experiment: Assay for α-glucosidase inhibitory activity; assay type: biochemical; conditions: for α-glucosidase inhibitory activity compared to acarbose (in words): Figure 3, 150 μM, p < 0.05; for total activity α-glucosidase: total activity = amount (mg/kg)/IC50 (mg/mL); for IC50: read-out: IC50 α-glucosidase, mean ± SD (n = 3)
[3] = tested on: α-Glucosidase (from Saccharomyces cerevisiae); experiment: Inhibitory kinetics analysis against the α-glucosidase enzyme; assay type: biochemical; conditions: Lineweaver–Burk plot analysis, sucrose substrate
[4] = STZ-induced diabetic rats ref 46; cited from earlier work
glycogenic enzymes = conditions: rats ref 47; cited from earlier work
[5] = target: T1, α-amylase (from the porcine pancreas) (Sus scrofa, UniProt P00690); experiment: biochemical; assay type: biochemical; conditions: for IC50: IC50 α-amylase, mean ± SD (n = 3)
T1 sequence (P00690 16-511): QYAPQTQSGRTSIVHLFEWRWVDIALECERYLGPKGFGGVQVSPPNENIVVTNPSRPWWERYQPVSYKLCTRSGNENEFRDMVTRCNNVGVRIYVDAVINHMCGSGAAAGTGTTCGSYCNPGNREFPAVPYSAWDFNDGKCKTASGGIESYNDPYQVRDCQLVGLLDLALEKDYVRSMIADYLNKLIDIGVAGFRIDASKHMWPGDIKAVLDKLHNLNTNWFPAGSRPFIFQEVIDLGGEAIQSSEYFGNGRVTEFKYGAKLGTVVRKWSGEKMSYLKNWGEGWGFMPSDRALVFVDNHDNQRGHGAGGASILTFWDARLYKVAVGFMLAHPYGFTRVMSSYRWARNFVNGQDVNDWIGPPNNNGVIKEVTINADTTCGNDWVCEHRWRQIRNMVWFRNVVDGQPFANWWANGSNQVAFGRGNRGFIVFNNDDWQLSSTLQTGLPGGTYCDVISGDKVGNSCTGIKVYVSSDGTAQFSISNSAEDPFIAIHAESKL

glycogen phosphorylase = conditions: cited from earlier work

## C[C@H]1[C@H](C)CC[C@]2(C(=O)O)CC[C@]3(C)C(=CC[C@@H]4[C@@]5(C)C[C@@H](O)[C@H](O)C(C)(C)[C@@H]5CC[C@]43C)[C@H]12 [corosoric acid]
α-glucosidase
  α-glucosidase inhibitory activity in vitro (in words): strong inhibitory activity
α-amylase
  α-amylase inhibitory activity in vitro (in words): strong inhibitory activity
[1]
  post-challenge plasma glucose levels: significant effect on lowering post-challenge plasma glucose levels

## CC1(C)CC[C@]2(C(=O)O)CC[C@]3(C)C(=CC[C@@H]4[C@@]5(C)CC[C@H](O)C(C)(C)[C@@H]5CC[C@]43C)[C@@H]2C1 [oleanolic acid 1, oleanolic acid]
[2]
  α-glucosidase inhibitory activity compared to acarbose (in words): higher than that of acarbose
  total activity α-glucosidase: 5359.5
[3]
  inhibition type against α-glucosidase: partial mixed inhibitor
[3]; listed as 1
  inhibition type against α-glucosidase: mixed-type
[4]
  blood glucose levels: lower blood glucose levels
Glycogenic enzymes
  glycogen levels and glycogenic enzymes: reduced glycogen levels and glycogenic enzymes

## CC1(C)CC[C@]2(C(=O)O)CC[C@]3(C)C(=CC[C@@H]4[C@@]5(C)C[C@@H](O)[C@H](O)C(C)(C)[C@@H]5CC[C@]43C)[C@@H]2C1 [maslinic acid 2, maslinic acid]
[2]
  α-glucosidase inhibitory activity compared to acarbose (in words): higher than that of acarbose
  IC50: 34.5 ± 1.4 µM
  total activity α-glucosidase: 11042.9
[5]
  α-amylase inhibitory activity compared to acarbose (in words): acarbose had higher activity than them
  IC50: 67 ± 5.4 µM
[5]; total activity = amount (mg/kg)/IC50 (mg/mL)
  total activity α-amylase: 5678.2
Glycogen phosphorylase
  blood glucose levels / glycogen phosphorylase inhibition: reduce blood glucose levels by inhibiting glycogen phosphorylase

## OCCc1ccc(O)c(O)c1 [hydroxytyrosol 7, hydroxytyrosol]
[2]; 1000 μM
  α-glucosidase inhibitory activity at highest tested concentration: less than 10%
[2]
  IC50: > 1000 µM
[5]
  IC50: > 500 µM
[5]; read-out: α-amylase inhibitory activity at highest tested concentration
  inhibition at 500 µM: < 10%
